Data published in patent US20090197897A1, “Novel Oxadiazole Derivatives and Their Use as Positive Allosteric Modulators of Metabotropic Glutamate Receptors” (Addex Pharma SA, priority 2005, published 2009).

Assays:
mGluR5 = target: T1, mGluR5 (Rattus norvegicus, UniProt P31424); conditions: Liu et al 2006, Zhang et al 2005; cited from earlier work
T1 construct: positive allosteric modulators of mGluR5 receptors in native preparations; endogenous in cells; host or cells: primary cortical astrocytes from Sprague-Dawley rat embryos (day 16 to 19)
T1 sequence (P31424 21-1203): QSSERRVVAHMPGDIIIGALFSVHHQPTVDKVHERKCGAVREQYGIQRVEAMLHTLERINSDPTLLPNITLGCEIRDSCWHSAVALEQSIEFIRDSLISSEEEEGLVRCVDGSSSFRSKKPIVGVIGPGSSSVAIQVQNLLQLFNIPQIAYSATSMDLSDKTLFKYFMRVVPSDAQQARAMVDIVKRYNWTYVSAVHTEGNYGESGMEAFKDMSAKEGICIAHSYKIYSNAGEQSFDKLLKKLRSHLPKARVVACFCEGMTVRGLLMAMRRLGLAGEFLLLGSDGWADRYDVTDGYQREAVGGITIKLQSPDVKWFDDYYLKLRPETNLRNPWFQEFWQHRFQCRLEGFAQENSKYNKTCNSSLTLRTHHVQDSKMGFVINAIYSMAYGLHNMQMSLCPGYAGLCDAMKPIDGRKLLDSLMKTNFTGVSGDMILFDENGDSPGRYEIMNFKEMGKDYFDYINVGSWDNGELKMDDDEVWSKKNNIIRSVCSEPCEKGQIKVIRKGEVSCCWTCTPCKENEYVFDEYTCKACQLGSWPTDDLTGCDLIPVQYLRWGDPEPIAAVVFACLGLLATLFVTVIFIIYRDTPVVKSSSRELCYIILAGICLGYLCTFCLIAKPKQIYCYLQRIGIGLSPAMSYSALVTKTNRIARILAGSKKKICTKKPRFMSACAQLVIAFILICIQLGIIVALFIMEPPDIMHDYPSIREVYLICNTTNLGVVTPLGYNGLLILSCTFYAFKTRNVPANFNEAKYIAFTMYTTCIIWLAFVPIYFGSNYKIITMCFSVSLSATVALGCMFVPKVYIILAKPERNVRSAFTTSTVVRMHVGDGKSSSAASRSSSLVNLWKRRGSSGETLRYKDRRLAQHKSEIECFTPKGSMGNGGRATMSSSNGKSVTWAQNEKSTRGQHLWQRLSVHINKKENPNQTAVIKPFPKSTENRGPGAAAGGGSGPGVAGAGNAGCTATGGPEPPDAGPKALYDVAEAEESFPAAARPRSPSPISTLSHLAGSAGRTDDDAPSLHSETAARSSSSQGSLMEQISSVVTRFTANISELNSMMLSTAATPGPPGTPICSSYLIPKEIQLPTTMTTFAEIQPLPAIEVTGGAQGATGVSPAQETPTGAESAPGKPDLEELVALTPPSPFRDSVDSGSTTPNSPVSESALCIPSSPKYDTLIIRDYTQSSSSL

rat mGluR5 = target: T2, rat mGluR5 (Rattus norvegicus, UniProt P31424); experiment: mGluR5 assay on HEK-expressing rat mGluR5 (fluorescent cell based Ca2+ mobilization assay); conditions: for activation of rat mGluR5 receptors in HEK-rat mGluR5 cell line: without co-addition of glutamate or mGluR5 agonist; for EC50: HEK-293 cells stably expressing rat mGluR5, no co-addition of glutamate, mean of at least three independent experiments in duplicate, read-out: Ca++ Flux (mean EC50)
T2 construct: expressed in transfected cells
T2 sequence (P31424 21-1171 isoform P31424-2 limits assumed): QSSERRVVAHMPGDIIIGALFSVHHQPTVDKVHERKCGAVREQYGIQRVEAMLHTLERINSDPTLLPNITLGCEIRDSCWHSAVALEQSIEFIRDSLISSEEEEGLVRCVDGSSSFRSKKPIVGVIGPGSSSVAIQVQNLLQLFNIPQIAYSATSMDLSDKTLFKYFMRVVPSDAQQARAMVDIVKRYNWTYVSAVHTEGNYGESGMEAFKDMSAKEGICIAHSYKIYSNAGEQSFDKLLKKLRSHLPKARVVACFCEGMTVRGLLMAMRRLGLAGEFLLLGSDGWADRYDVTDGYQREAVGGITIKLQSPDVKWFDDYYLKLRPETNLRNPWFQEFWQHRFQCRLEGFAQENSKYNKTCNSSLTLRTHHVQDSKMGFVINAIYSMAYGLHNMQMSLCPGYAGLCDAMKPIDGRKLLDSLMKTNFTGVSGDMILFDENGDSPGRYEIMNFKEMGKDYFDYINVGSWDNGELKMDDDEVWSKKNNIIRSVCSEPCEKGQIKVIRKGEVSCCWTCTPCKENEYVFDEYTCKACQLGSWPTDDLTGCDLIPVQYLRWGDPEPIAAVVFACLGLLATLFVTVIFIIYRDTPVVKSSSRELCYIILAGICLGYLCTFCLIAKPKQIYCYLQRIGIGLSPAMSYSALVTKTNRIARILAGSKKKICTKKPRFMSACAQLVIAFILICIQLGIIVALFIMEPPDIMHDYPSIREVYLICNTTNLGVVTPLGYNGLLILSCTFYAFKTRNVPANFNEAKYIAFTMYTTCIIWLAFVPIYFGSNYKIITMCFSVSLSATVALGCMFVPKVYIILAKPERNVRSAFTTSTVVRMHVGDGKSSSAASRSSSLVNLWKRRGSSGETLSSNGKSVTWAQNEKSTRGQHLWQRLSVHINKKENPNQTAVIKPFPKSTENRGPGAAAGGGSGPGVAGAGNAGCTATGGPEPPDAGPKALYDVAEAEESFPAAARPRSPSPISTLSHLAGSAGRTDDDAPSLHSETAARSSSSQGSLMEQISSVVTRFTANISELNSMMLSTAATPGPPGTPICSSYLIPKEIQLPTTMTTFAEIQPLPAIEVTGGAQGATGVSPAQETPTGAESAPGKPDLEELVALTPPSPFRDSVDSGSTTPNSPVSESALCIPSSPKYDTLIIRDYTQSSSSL
Description: mGluR5 Assay on HEK-Expressing Rat mGluR5
Positive functional expression of HEK-293 cells stably expressing rat mGluR5 receptor was determined by measuring intracellular Ca^2+ changes using a Fluorometric Imaging Plate Reader (FLIPR, Molecular Devices, Sunnyvale, Calif.) in response to glutamate or selective known mGluR5 agonists and antagonists. Rat mGluR5 RT-PCR products in HEK-293 cells were sequenced and found 100% identical to rat mGluR5 Genbank reference sequence (NM_017012). HEK-293 cells expressing rmGluR5 were maintained in media containing DMEM, dialyzed Fetal Bovine Serum (10%), Glutamax™ (2 mM), Penicillin (100 units/ml), Streptomycin (100 μg/ml), Geneticin (100 μg/ml) and Hygromycin-B (40 μg/ml) at 37° C./5% CO2.
After one day of incubation, cells were washed with assay buffer containing: 142 mM NaCl, 6 mM KCl, 1 mM […], 1 mM CaCl2, 20 mM HEPES, 1 g/L glucose, 0.125 mM sulfinpyrazone, pH 7.4. After 60 min of loading with 4 uM Fluo-4 (TefLabs, Austin, Tex.), the cells were washed three times with 50 μl of PBS Buffer and resuspended in 45 μl of assay Buffer. The plates were then transferred to a Fluorometric Imaging Plate Reader (FLIPR, Molecular Devices, Sunnyvale, Calif.) for the assessment of intracellular calcium flux. After monitoring the baseline fluorescence for 10 seconds, increasing concentrations of representative compound (from 0.01 to 60 μM) of the present invention diluted in Assay Buffer (15 μl of 4× dilutions) was added to the cell. The final DMSO concentration in the assay was 0.3%. In each experiment, fluorescence was then monitored as a function of time for 3 minutes and the data analyzed using Microsoft Excel and GraphPad Prism. Each data point was also measured two times.
Under these experimental conditions, this HEK-rat mGluR5 cell line is able to directly detect positive allosteric modulators without the need of co-addition of glutamate or mGluR5 agonist.
The concentration-response curves of representative compounds of the present invention were generated using the Prism GraphPad software (Graph Pad Inc, San Diego, USA). The curves were fitted to a four-parameter logistic equation:
(Y=Bottom+(Top−Bottom)/(1+10̂((Log EC50−X)*Hill Slope)
allowing determination of EC50 values.
The Table 1 below represents the mean EC50 obtained from at least three independent experiments of selected molecules performed in duplicate.

In the case of `Fc1cccc(/C=N/N=C/c2cccc(F)c2)c1` [DFB, reference compound], the “activity in rat cortical astrocytes culture in the absence of added glutamate” value (shortened to “activity”) (mGluR5) is given as “inactive” and the “activation of rat mGluR5 receptors in HEK-rat mGluR5 cell line” value (“activation of rat mGluR5 receptors” below) (rat mGluR5) is given as “activating”.

For `Cc1ncccc1C(=O)N1CCC[C@H](c2nc(-c3ccc(F)cc3)no2)C1` [Example 16, {(S)-3-[3-(4-Fluoro-phenyl)-[1,2,4]oxadiazol-5-yl]-piperidin-1-yl}-(2-methyl-pyridin-3-yl)-methanone], the EC50 (rat mGluR5) was 1 to 10 µM and the melting point was 115 to 116 °C.

In the case of `O=C(c1ccc(F)c(F)c1)N1CCC[C@H](c2nc(-c3ccsc3)no2)C1` [Example 45, (3,4-Difluoro-phenyl)-[(S)-3-(3-thiophen-3-yl-[1,2,4]oxadiazol-5-yl)-piperidin-1-yl]-methanone], the EC50 (rat mGluR5) is reported as < 1 µM and the melting point is reported as 92 to 97 °C.

For `O=C(c1ccc(F)c(F)c1)N1CCC[C@H](c2nc(-c3cscn3)no2)C1` [Example 51, (3,4-Difluoro-phenyl)-[(S)-3-(3-thiazol-4-yl-[1,2,4]oxadiazol-5-yl)-piperidin-1-yl]-methanone], the EC50 (rat mGluR5) was 1 to 10 µM and the melting point was 107 to 109 °C.

For `Cc1c[nH]cc1C(=O)N1CCC[C@H](c2nc(-c3ccc(F)cc3)no2)C1` [Example 43, {(S)-3-[3-(4-Fluoro-phenyl)-[1,2,4]oxadiazol-5-yl]-piperidin-1-yl}-(4-methyl-1H-pyrrol-3-yl)-methanone], the EC50 (rat mGluR5) was 1 to 10 µM and the melting point was 167.5 to 168.9 °C.

In the case of `O=C(Nc1ccc(Cl)cc1CN1C(=O)c2ccccc2C1=O)c1ccccc1O` [CPPHA, reference compound], the “activity” value (mGluR5) is given as “inactive” and the “activation of rat mGluR5 receptors” value (rat mGluR5) is given as “activating”.

For `O=C(c1ccc(F)c(F)c1)N1CCC[C@H](c2nc(-c3ccncc3)no2)C1` [Example 52, (3,4-Difluoro-phenyl)-[(S)-3-(3-pyridin-4-yl-[1,2,4]oxadiazol-5-yl)-piperidin-1-yl]-methanone], the EC50 (rat mGluR5) was < 1 µM and the melting point was 102 to 106 °C.

Compound `O=C(c1cccc2c1OCCO2)N1CCC[C@H](c2nc(-c3ccc(F)cc3)no2)C1` [Example 25, (S)-(2,3-Dihydro-benzo[1,4]dioxin-5-yl)-{3-[3-(4-fluoro-phenyl)-[1,2,4]oxadiazol-5-yl]-piperidin-1-yl}-methanone] has an EC50 (rat mGluR5) of 1 to 10 µM and a melting point of 57 to 60 °C.

With `Cc1cnccc1C(=O)N1CCC[C@H](c2nc(-c3ccc(F)cc3)no2)C1` [Example 27, (S)-{3-[3-(4-Fluoro-phenyl)-[1,2,4]oxadiazol-5-yl]-piperidin-1-yl}-(3-methyl-pyridin-4-yl)-methanone] the EC50 (rat mGluR5) was 1 to 10 µM and the melting point was 59 to 63 °C.

With `Cc1cc(C(=O)N2CCC[C@H](c3nc(-c4ccc(F)cc4)no3)C2)c(C)n1C` [Example 17, {(S)-3-[3-(4-Fluoro-phenyl)-[1,2,4]oxadiazol-5-yl]-piperidin-1-yl}-(1,2,5-trimethyl-1H-pyrrol-3-yl)-methanone] the EC50 (rat mGluR5) was 1 to 10 µM and the melting point was 122 to 126 °C.

For `CN(C)c1ccc(-c2noc([C@H]3CCCN(C(=O)c4ccc(F)cc4)C3)n2)cc1` [Example 58, {(S)-3-[3-(4-Dimethylamino-phenyl)-[1,2,4]oxadiazol-5-yl]-piperidin-1-yl}-(4-fluoro-phenyl)-methanone], the EC50 (rat mGluR5) was > 10 µM and the melting point was 147 to 153 °C.

Compound `O=C(c1ccc(F)cc1)N1CCC=C(c2nc(-c3ccc(F)cc3)no2)C1` [Example 1, (4-Fluoro-phenyl)-{5-[3-(4-fluoro-phenyl)-[1,2,4]oxadiazol-5-yl]-3,6-dihydro-2H-pyridin-1-yl}-methanone] has an EC50 (rat mGluR5) of 1 to 10 µM and a melting point of 138 to 140 °C.

For `N#Cc1cccc(C(=O)Nc2cc(-c3ccccc3)nn2-c2ccccc2)c1` [CDPPB, reference compound], the “activity” value (mGluR5) is given as “inactive” and the “activation of rat mGluR5 receptors” value (rat mGluR5) is given as “activating”.

For `O=C(c1ccnc(F)c1)N1CCC[C@H](c2nc(-c3ccc(F)cc3)no2)C1` [Example 77, {(S)-3-[3-(4-Fluoro-phenyl)-[1,2,4]oxadiazol-5-yl]-piperidin-1-yl}-(2-fluoro-pyridin-4-yl)-methanone], the EC50 (rat mGluR5) was < 1 µM and the melting point was 93 to 95 °C.

`O=C(C1CCSCC1)N1CCC[C@H](c2nc(-c3ccc(F)cc3)no2)C1` [Example 7, {(S)-3-[3-(4-Fluoro-phenyl)-[1,2,4]oxadiazol-5-yl]-piperidin-1-yl}-(tetrahydro-thiopyran-4-yl)-methanone] showed an EC50 (rat mGluR5) of 1 to 10 µM and a melting point of 139 to 141 °C.

In the case of `O=C(c1c(F)cc(F)cc1F)N1CCC[C@H](c2nc(-c3ccc(F)cc3)no2)C1` [Example 12, {(S)-3-[3-(4-Fluoro-phenyl)-[1,2,4]oxadiazol-5-yl]-piperidin-1-yl}-(2,4,6-trifluoro-phenyl)-methanone], the EC50 (rat mGluR5) is reported as 1 to 10 µM and the melting point is reported as 125 to 130 °C.

In the case of `Cc1cc(C(=O)N2CCC[C@H](c3nc(-c4ccc(F)cc4)no3)C2)c(C)o1` [Example 23, (2,5-Dimethyl-furan-3-yl)-{(S)-3-[3-(4-fluoro-phenyl)-[1,2,4]oxadiazol-5-yl]-piperidin-1-yl}-methanone], the EC50 (rat mGluR5) is reported as < 1 µM and the melting point is reported as 114 to 118 °C.

For `O=C(c1ccc(F)c(F)c1)N1CCC[C@H](c2nc(-c3ccccn3)no2)C1` [Example 54, (3,4-Difluoro-phenyl)-[(S)-3-(3-pyridin-2-yl-[1,2,4]oxadiazol-5-yl)-piperidin-1-yl]-methanone], the EC50 (rat mGluR5) was < 1 µM and the melting point was 135 to 137 °C.

With `O=C(c1ccc(F)cc1)N1CCC[C@H](c2nc(-c3cscn3)no2)C1` [Example 50, (4-Fluoro-phenyl)-[(S)-3-(3-thiazol-4-yl-[1,2,4]oxadiazol-5-yl)-piperidin-1-yl]-methanone] the EC50 (rat mGluR5) was 1 to 10 µM and the melting point was 118 to 120 °C.

With `COc1cc(C(=O)N2CCC[C@H](c3nc(-c4ccc(F)cc4)no3)C2)ccc1F` [Example 26, (S)-(4-Fluoro-3-methoxy-phenyl)-{3-[3-(4-fluoro-phenyl)-[1,2,4]oxadiazol-5-yl]-piperidin-1-yl}-methanone] the EC50 (rat mGluR5) was 1 to 10 µM and the melting point was 109 to 111 °C.

In the case of `O=C(c1ccccc1)c1cccc(C(=O)N2CCC[C@H](c3nc(-c4ccc(F)cc4)no3)C2)c1` [Example 11, (3-Benzoyl-phenyl)-{(S)-3-[3-(4-fluoro-phenyl)-[1,2,4]oxadiazol-5-yl]-piperidin-1-yl}-methanone], the EC50 (rat mGluR5) is reported as 1 to 10 µM and the melting point is reported as 158 to 163 °C.

With `N#Cc1cc(C(=O)N2CCC[C@H](c3nc(-c4ccc(F)cc4)no3)C2)ccc1F` [Example 3, 2-Fluoro-5-{(S)-3-[3-(4-fluoro-phenyl)-[1,2,4]oxadiazol-5-yl]-piperidine-1-carbonyl}-benzonitrile] the EC50 (rat mGluR5) was 1 to 10 µM and the melting point was 144 to 146 °C.

In the case of `O=C(C1CCCCC1)N1CCC[C@H](c2nc(-c3ccc(F)cc3)no2)C1` [Example 10, Cyclohexyl-{(S)-3-[3-(4-fluoro-phenyl)-[1,2,4]oxadiazol-5-yl]-piperidin-1-yl}-methanone], the EC50 (rat mGluR5) is reported as 1 to 10 µM and the melting point is reported as 80 to 85 °C.

`O=C(C1CCOCC1)N1CCC[C@H](c2nc(-c3ccc(F)cc3)no2)C1` [Example 9, {(S)-3-[3-(4-Fluoro-phenyl)-[1,2,4]oxadiazol-5-yl]-piperidin-1-yl}-(tetrahydro-pyran-4-yl)-methanone] gave an EC50 (rat mGluR5) of 1 to 10 µM and a melting point of 98 to 100 °C.
